Holding throughout (format): in vivo, rat
In one assay the test system is TNF-α. The experiment in a line: TNF-α immunostaining densitometry of microglia and astrocytes after blast. From the text: FIGS. 23A and 23B depict densitometry measurements of ionized calcium-binding adapter molecule 1 (Iba-1) and TNF-α expression, respectively, as observed by fluorescence microscopy of immunohistochemistry-stained microglia. […] Error bars in FIGS. 23A-23B depict standard deviation.
FIGS. 24A and 24B depict densitometry measurements of glial fibrillary acidic protein (GFAP) and TNF-α expression, respectively, as observed by fluorescence microscopy of immunohistochemistry-stained AC astrocytes. […] The decrease in astrocyte TNF-α expression was relatively smaller than the decrease in microglial TNF-α expression (compare […] with FIG. 23B). […] Error bars in FIGS. 24A-24B depict standard deviation.

The test system of the next assay is DCN, IC and AC neurons. Kind of assay: Neurophysiological recordings of DCN, IC and AC after blast exposure. Particulars: blast-exposed rats, 56 mg/kg i.p. The method, then: Rats were exposed or sham-exposed to a blast shockwave. To determine whether TNF-α is involved in blast-induced tinnitus, the rats were injected once daily for 5 days with 3,6′-dithiothalidomide starting 7 days after blast exposure. Behavioral testing and ABR recordings started 1 day after drug injection and lasted for three weeks.
Neurophysiological recordings of the left DCN, right IC and right AC were performed 3 weeks after drug or vehicle injection. Each rat was anesthetized with a mixture of air (1 liter/min) and isoflurane (5% v/v) and then secured in a stereotaxic frame with hollow ear bars (model 1530; David Kopf Instruments, Tujunga, Calif.). A mixture of air (1 liter/min) and isoflurane (1.75-2.5% v/v) was used to maintain anesthesia during surgery and recordings. In order to maintain the rat's body temperature at 37° C., a thermostat-controlled blanket (Harvard Apparatus, Holliston, Mass.) was used during the procedure. For electrophysiological recording, electrode arrays were inserted into the DCN, IC, and AC. Prior to insertion, the electrode probe was dipped into a 3% DiI solution (1,10-dioctadecyl-3,3,30,30-tetramethylindocarbocyanine perchlorate; Invitrogen, Carlsbad, Calif.) prepared with dimethylformamide to label the electrode insertion tracks. By using a micromanipulator (model 1460-61; David Kopf Instruments), an eight-shank, 32-channel electrode probe (NeuroNexus Technologies, Ann Arbor, Mich.) was inserted into the DCN and the probe was inserted into a depth of […] below the DCN surface, corresponding to the fusiform cell layer. For the IC, a two-shank 32-Channel (NeuroNexus) probe was inserted 20° off of the sagittal plane and 30° off of the horizontal plane through the occipital cortex into the IC. To implant in the AC, a 32 (4×8) microwire array was implanted 2.7 to 5.8 mm posterior to the bregma, and ˜0.8-1.0 mm from the cortical surface. After probe placement, the brain was covered with agarose to avoid tissue swelling and drying. The probe connector was connected to a real-time signal processing system (RZ2, TDT) with a 25 kHz sampling rate and a 100-3000 Hz bandpass filter. Spontaneous activity, frequency tuning curves (FTCs), and acoustic stimulation with tone and noise bursts (BBN) was recorded. Spontaneous single- and multi-unit spikes were recorded twice; one 5 min prior to and one 5 min after frequency tuning curve (FTC) construction. Each spontaneous recording period lasted 5 min. FTCs were obtained to determine the frequency representation of each implanted electrode in the DCN, IC and AC using tone sweeps (50 ms in duration, 2-44 kHz, incremental steps of 2 dB, sound level range of 0-85 dB SPL).

For a further assay, the system named is AC pyramidal neurons. Kind of assay: Patch clamp recording of miniature synaptic currents in AC slices after blast exposure. The method, then:
Two groups of 7 rats each were exposed to blast shockwaves as described above, and an additional group of 7 rats was sham-exposed. One of the exposed groups was administered 3,6′-dithiothalidomide for five days starting on the day of the exposure, and the other exposed group was administered vehicle. Brain slides were prepared from the AC of the rats 10-20 days after the blast exposure. Pyramidal neurons were recorded using the patch clamp method. Miniature synaptic currents were recorded to assess the functional states of the excitatory and inhibitory synaptic transmission. Neurons were filled with biocytin, which was stained with immunocytochemistry to reveal the morphology of the recorded neurons.
(Patch clamp records ionic current or voltage across a cell membrane.)

SMILES strings stand for the structures.

In the case of `O=C1NC(=S)CCC1N1C(=O)c2ccccc2C1=S` (centres unmarked) [3,6′-dithiothalidomide], the “blast-induced astrocyte TNF-α expression” value in the assay with TNF-α (immunostained AC astrocytes, FIG. 24A) is listed as “partially blocked”. For the same molecule, in the assay with TNF-α (immunostained microglia, FIG. 23B), the “blast-induced microglial TNF-α expression” value is “is blocked”. For the same molecule, in the assay with DCN, IC and AC neurons (DCN, IC and AC, FIGS. 22A-22C), the “neuronal firing synchrony (correlogram ratio)” value was “significantly reduced neuronal firing synchrony”. Moreover, the “spontaneous bursting rate in the DCN” value with DCN, IC and AC neurons (FIG. 20A) was “reduced bursting rates in blast-exposed animals to the control level”. Moreover, the “spontaneous firing rate in the DCN” value in the assay on DCN, IC and AC neurons (FIG. 20B) is listed as “reduced firing rates in blast-exposed animals to the control level”. Further, in the assay with DCN, IC and AC neurons (FIG. 21A), the “spontaneous bursting rate in the AC” value is listed as “reduced bursting rates in blast-exposed animals relative to vehicle”. The “spontaneous firing rate in the AC” value in the assay with DCN, IC and AC neurons (FIG. 21B) is on record as “reduced firing rates in blast-exposed animals to the control level”. In the assay with AC pyramidal neurons (56 mg/kg i.p., Kolmogorov-Smirnov Test p<0.001, FIG. 19), the “cumulative distribution of mIPSC frequency (blast-induced shift to lower frequencies)” value is listed as “reversed this effect”. Also, in the assay with AC pyramidal neurons (blast-exposed rats, drug for five days from day of exposure, vs vehicle-treated, FIG. 17C), the “mIPSCs in recording traces of auditory cortical neurons” value is “less reduction in mIPSCs”. Further, the “mIPSC frequency (blast-induced reduction)” value in the assay on AC pyramidal neurons (blast-exposed rats, 56 mg/kg i.p. daily, FIG. 18B) was “completely abolished the blast-induced reduction”. Moreover, the mIPSC amplitude entry in the assay with AC pyramidal neurons (blast-exposed rats, 56 mg/kg i.p., relative to sham-blast controls, FIG. 18A) is reported as “did not significantly change mIPSC amplitudes”.
